Laboratory results from patent US8008074B2, “Compositions and methods for improving bone mass through modulation of receptors of PTH and fragments thereof” (The UAB Research Foundation, priority 2006, dated 2011).

System: β-catenin
Experiment: β-catenin protein levels in HEK293 cells
Assay type: cell-based
Conditions: different concentrations and time points
Description: In parallel, proteins from cytosolic and nuclear fractions were isolated from the UMR 106 cells after a 30 minute treatment with control medium, Wnt-3a conditioned medium, or 5×10^−7 M PTH (1-84). The proteins were transferred to a blotting membrane, and the immunoblots were stained with an anti-β-catenin antibody or antibody to a control protein (α-tubulin or histone). […] Moreover, cytosolic and nuclear β-catenin protein levels also were examined in embryonic kidney epithelial cells (HEK293) that were treated with different concentrations of PTH and harvested at different time points.

PTH: Parathyroid hormone ligand, form not stated at the place; figure legends give PTH (1-84) or PTH (1-34)
cytosolic and nuclear β-catenin protein levels: stimulates protein levels of β-catenin in both the cytoplasm and the nucleus in a concentration and time dependent manner
